11 compounds from patent publication US9944678B2, “Immunomodulators” (BRISTOL-MYERS SQUIBB COMPANY, priority 2014, dated 2018) can be followed below.

SMILES strings stand for the structures. Starred links: 1 amine or outer side, 2 acyl side, 3 side chain; linkers in the order of their positions; H or OH if unused. Positions of bridges follow the written chain, without caps; N, C: chain ends. Non-standard residues stand in square brackets, D forms with d. Residues, ends and D or L forms follow the SMILES beside them. ξ: configuration not given here. X1 = C=C[C@H]1C[C@@]1(N[*:1])C(=O)[*:2]; X4 = C[C@H]1C[C@@]1(N[*:1])C(=O)[*:2]; Bta = N[C@@H](Cc1csc2ccccc12)C(=O)O; X3 = C[C@H]1CC1(N[*:1])C(=O)[*:2]; Hyp = O=C(O)[C@@H]1C[C@@H](O)CN1; Aic = NC1(C(=O)O)Cc2ccccc2C1; NMeNle = CCCC[C@H](NC)C(=O)O; NMeA = CN[C@@H](C)C(=O)O; Ac5c = NC1(C(=O)O)CCCC1; Dab = NCC[C@H](N)C(=O)O; Dap = NC[C@H](N)C(=O)O; Aib = CC(C)(N)C(=O)O; ξC = NC(CS)C(=O)O; Sar = CNCC(=O)O

For orientation: IC50 means the concentration that gives 50% inhibition. Read a low IC50 as inhibition by little substance.

The target of one assay is T1, PD-1-Ig binding to PD-L1-TVMV-His (PD-L1-His) (Homo sapiens, UniProt Q9NZQ7).
T1 construct: hPDL1(19-239)-TVMV-His; TVMV protease cleavage site (C); made in house; host or cells: HEK293T cells
T1 sequence (Q9NZQ7 with tags, fused parts or gaps): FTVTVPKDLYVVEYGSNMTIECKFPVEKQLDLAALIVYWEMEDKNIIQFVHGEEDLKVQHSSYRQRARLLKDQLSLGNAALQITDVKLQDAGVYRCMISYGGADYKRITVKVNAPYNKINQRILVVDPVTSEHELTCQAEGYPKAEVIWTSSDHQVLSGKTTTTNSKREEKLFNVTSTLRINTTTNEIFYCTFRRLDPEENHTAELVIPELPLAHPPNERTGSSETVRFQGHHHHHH
Briefly: PD-1/PD-L1 Homogenous Time-Resolved Fluorescence (HTRF) binding assay. To be noted: PD-1-Ig/PD-L1-His binding; numeric values. The source says: The ability of the macrocyclic peptides of the present disclosure to bind to PD-L1 was investigated using a PD-1/PD-L1 Homogenous Time-Resolved Fluorescence (HTRF) binding assay.
Homogenous Time-Resolved Fluorescence (HTRF) Assays of Binding of Soluble PD-1 to Soluble PD-L1. Soluble PD-1 and soluble PD-L1 refers to proteins with carboxyl-end truncations that remove the transmembrane-spanning regions and are fused to heterologous sequences, specifically the Fc portion of the human immunoglobuling G sequence (Ig) or the hexahistidine epitope tag (His). All binding studies were performed in an HTRF assay buffer consisting of dPBS supplemented with 0.1% (w/v) bovine serum albumin and 0.05% (v/v) Tween-20. For the PD-1-Ig/PD-L1-His binding assay, inhibitors were pre-incubated with PD-L1-His (10 nM final) for 15 m in 4 μl of assay buffer, followed by addition of PD-1-Ig (20 nM final) in 1 μl of assay buffer and further incubation for 15 m. PD-L1 fusion proteins from either human, cynomologous macaques, mouse, or other species were used. HTRF detection was achieved using europium crypate-labeled anti-Ig monoclonal antibody (1 nM final) and allophycocyanin (APC) labeled anti-His monoclonal antibody (20 nM final). Antibodies were diluted in HTRF detection buffer and 5 μl was dispensed on top of binding reaction. The reaction was allowed to equilibrate for 30 minutes and signal (665 nm/620 nm ratio) was obtained using an EnVision fluorometer. Additional binding assays were established between PD-1-Ig/PD-L2-His (20 and 5 nM, respectively), CD80-His/PD-L1-Ig (100 and 10 nM, respectively) and CD80-His/CTLA4-Ig (10 and 5 nM, respectively). Binding/competition studies between biotinylated Compound No. 71 and human PD-L1-His were performed as follows. Macrocyclic peptide inhibitors were pre-incubated with PD-L1-His (10 nM final) for 60 minutes in 4 μl of assay buffer followed by addition of biotinylated Compound No. 71 (0.5 nM final) in 1 μl of assay buffer. Binding was allowed to equilibrate for 30 minutes followed by addition of europium crypated labeled Streptavidin (2.5 pM final) and APC-labeled anti-His (20 nM final) in 5 μl of HTRF buffer. The reaction was allowed to equilibrate for 30 m and signal (665 nm/620 nm ratio) was obtained using an EnVision fluorometer.
Recombinant Proteins. Carboxyl-truncated human PD-1 (amino acids 25-167) with a C-terminal human Ig epitope tag [hPD-1 (25-167)-3S-IG] and human PD-L1 (amino acids 18-239) with a C-terminal His epitope tag [hPD-L1(19-239)-tobacco vein mottling virus protease cleavage site (TVMV)-His] were expressed in HEK293T cells and purified sequentially by recombinant Protein A affinity chromatography and size exclusion chromatography. Human PD-L2-His (Sino Biologicals), CD80-His (Sino Biologicals), CTLA4-Ig (RnD Systems) were all obtained through commercial sources.
Ranges are as follows: A=0.10-10 μM; B=0.01-0.099 μM; C=0.004-0.0099 μM.
Compound `CCCC[C@H]1C(=O)N(C)[C@@H](CCCC)C(=O)N[C@@H](CCCNC(=N)N)C(=O)NC(C(=O)NCC(N)=O)CSCC(=O)N[C@@H](Cc2ccc(O)cc2)C(=O)N(C)[C@@H](C)C(=O)N[C@@H](CC(N)=O)C(=O)N2CCC[C@H]2C(=O)N[C@@H](Cc2cnc[nH]2)C(=O)N[C@@H](CC(C)C)C(=O)NC2(C[C@@H]2C)C(=O)N[C@@H](Cc2c[nH]c3ccccc23)C(=O)N[C@@H](CO)C(=O)N[C@@H](Cc2csc3ccccc23)C(=O)N1C` (some centres unmarked) [Example 10005] ({CH2CO}-Y[NMeA]NPHL[X3]WS[Bta][NMeNle][NMeNle]R[ξC]G-NH2; thioether N-14) displayed an IC50 of 1000 nM.
Same read-out and setting: the value for `C=C[C@H]1C[C@]12NC(=O)[C@H](CC(N)=O)NC(=O)[C@H](C)N(C)C(=O)[C@H](Cc1ccc(O)cc1)NC(=O)CSCC(C(=O)NCC(N)=O)NC(=O)[C@H](CCCNC(=N)N)NC(=O)[C@H](CCCC)N(C)C(=O)[C@H](CCCC)N(C)C(=O)[C@H](Cc1csc3ccccc13)NC(=O)[C@H](CO)NC(=O)[C@H](Cc1c[nH]c3ccccc13)NC(=O)[C@@H]1C[C@@H](O)CN1C(=O)[C@H](CC(C)C)NC(=O)[C@H](Cc1cnc[nH]1)NC2=O` (some centres unmarked) [Example 10002] ({CH2CO}-Y[NMeA]N[X1]HL[Hyp]WS[Bta][NMeNle][NMeNle]R[ξC]G-NH2; thioether N-14) was 200 nM.

Staying with this assay, now noted: PD-1-Ig/PD-L1-His binding; values given as range classes.
For the compound `CCCC[C@H]1C(=O)N(C)[C@@H](CCCC)C(=O)NC2(CCCC2)C(=O)N[C@H](C(=O)NCC(N)=O)CSCC(=O)N[C@@H](Cc2ccc(O)cc2)C(=O)N(C)[C@@H](C)C(=O)N[C@@H](CC(N)=O)C(=O)N2CCC[C@H]2C(=O)N[C@@H](CN)C(=O)N[C@@H](CC(C)C)C(=O)N2C[C@H](O)C[C@H]2C(=O)N[C@@H](Cc2c[nH]c3ccccc23)C(=O)N[C@@H](CCN)C(=O)N[C@@H](Cc2c[nH]c3ccccc23)C(=O)N1C` [Example 9015] ({CH2CO}-Y[NMeA]NP[Dap]L[Hyp]W[Dab]W[NMeNle][NMeNle][Ac5c]CG-NH2; thioether N-14), the IC50 is 10 to 99 nM.
The same measure, in the same setting: the value for `CCCC[C@H]1C(=O)N(C)[C@@H](CCCC)C(=O)N[C@@H](CC(C)C)C(=O)N[C@H](C(=O)NCC(N)=O)CSCC(=O)N[C@@H](Cc2ccc(O)cc2)C(=O)N(C)[C@@H](C)C(=O)N[C@@H](CC(N)=O)C(=O)N2CCC[C@H]2C(=O)NC2(CCCC2)C(=O)N[C@@H](CC(C)C)C(=O)N2C[C@H](O)C[C@H]2C(=O)N[C@@H](Cc2c[nH]c3ccccc23)C(=O)N[C@@H](CCN)C(=O)N[C@@H](Cc2c[nH]c3ccccc23)C(=O)N1C` [Example 9017] ({CH2CO}-Y[NMeA]NP[Ac5c]L[Hyp]W[Dab]W[NMeNle][NMeNle]LCG-NH2; thioether N-14) was 10 to 99 nM; that for `CCCC[C@H]1C(=O)N(C)[C@@H](CCCC)C(=O)NC2(Cc3ccccc3C2)C(=O)N[C@H](C(=O)NCC(N)=O)CSCC(=O)N[C@@H](Cc2ccc(O)cc2)C(=O)N(C)[C@@H](C)C(=O)N[C@@H](CC(N)=O)C(=O)N2CCC[C@H]2C(=O)N[C@@H](CN)C(=O)N[C@@H](CC(C)C)C(=O)N2C[C@H](O)C[C@H]2C(=O)N[C@@H](Cc2c[nH]c3ccccc23)C(=O)N[C@@H](CCN)C(=O)N[C@@H](Cc2c[nH]c3ccccc23)C(=O)N1C` [Example 9016] ({CH2CO}-Y[NMeA]NP[Dap]L[Hyp]W[Dab]W[NMeNle][NMeNle][Aic]CG-NH2; thioether N-14) was 10 to 99 nM; that for `CCCC[C@H]1C(=O)N(C)[C@@H](CCCC)C(=O)N[C@@H](CCCNC(=N)N)C(=O)N[C@H](C(=O)NCC(N)=O)CSCC(=O)N[C@@H](Cc2ccccc2)C(=O)N(C)[C@@H](C)C(=O)N[C@@H](CC(N)=O)C(=O)N2CCC[C@H]2C(=O)N[C@@H](Cc2cnc[nH]2)C(=O)N[C@@H](CC(C)C)C(=O)N(C)CC(=O)N[C@@H](Cc2c[nH]c3ccccc23)C(=O)NC(C)(C)C(=O)N[C@@H](Cc2c[nH]c3ccccc23)C(=O)N1C` [Example 1003] ({CH2CO}-F[NMeA]NPHL[Sar]W[Aib]W[NMeNle][NMeNle]RCG-NH2; thioether N-14) was 100 to 10000 nM.
Same read-out and setting: the value for `CCCC[C@H]1C(=O)N(C)[C@@H](CCCC)C(=O)N[C@@H](CCCNC(=N)N)C(=O)NC(C(=O)NCC(N)=O)CSCC(=O)N[C@@H](Cc2ccc(O)cc2)C(=O)N(C)[C@@H](C)C(=O)N[C@@H](CC(N)=O)C(=O)N2C[C@H](O)C[C@H]2C(=O)N[C@@H](Cc2cnc[nH]2)C(=O)N[C@@H](CC(C)C)C(=O)NC2(C[C@@H]2C)C(=O)N[C@@H](Cc2c[nH]c3ccccc23)C(=O)N[C@@H](CO)C(=O)N[C@@H](Cc2c[nH]c3ccccc23)C(=O)N1C` (some centres unmarked) [Example 10007] was 100 to 10000 nM.
Consider `CCCC[C@H]1C(=O)N(C)[C@@H](CCCC)C(=O)N[C@@H](CC(C)C)C(=O)N[C@H](C(=O)NCC(N)=O)CSCC(=O)N[C@@H](Cc2ccc(O)cc2)C(=O)N(C)[C@@H](C)C(=O)N[C@@H](CC(N)=O)C(=O)N2CCC[C@H]2C(=O)NC2(Cc3ccccc3C2)C(=O)N[C@@H](CC(C)C)C(=O)N2C[C@H](O)C[C@H]2C(=O)N[C@@H](Cc2c[nH]c3ccccc23)C(=O)N[C@@H](CCN)C(=O)N[C@@H](Cc2c[nH]c3ccccc23)C(=O)N1C` [Example 9018] ({CH2CO}-Y[NMeA]NP[Aic]L[Hyp]W[Dab]W[NMeNle][NMeNle]LCG-NH2; thioether N-14), for which the IC50 lay within 10 to 99 nM.
For `CCCC[C@H]1C(=O)N(C)[C@@H](CCCC)C(=O)N[C@@H](CC(C)C)C(=O)N[C@H](C(=O)NCC(N)=O)CSCC(=O)N[C@@H](Cc2ccc(O)cc2)C(=O)N(C)[C@@H](C)C(=O)NC(C)(C)C(=O)N2CCC[C@H]2C(=O)N[C@@H](CN)C(=O)N[C@@H](CC(C)C)C(=O)N2C[C@H](O)C[C@H]2C(=O)N[C@@H](Cc2c[nH]c3ccccc23)C(=O)N[C@@H](CCN)C(=O)N[C@@H](Cc2c[nH]c3ccccc23)C(=O)N1C` [Example 9013] ({CH2CO}-Y[NMeA][Aib]P[Dap]L[Hyp]W[Dab]W[NMeNle][NMeNle]LCG-NH2; thioether N-14), the IC50 fell in the range of 100 to 10000 nM.
The compound `C=C[C@H]1C[C@]12NC(=O)[C@H](CC(N)=O)NC(=O)[C@H](C)N(C)C(=O)[C@H](Cc1ccc(O)cc1)NC(=O)CSCC(C(=O)NCC(N)=O)NC(=O)[C@H](CCCNC(=N)N)NC(=O)[C@H](CCCC)N(C)C(=O)[C@H](CCCC)N(C)C(=O)[C@H](Cc1csc3ccccc13)NC(=O)[C@H](CO)NC(=O)[C@H](Cc1c[nH]c3ccccc13)NC(=O)[C@@H]1CCCN1C(=O)[C@H](CC(C)C)NC(=O)[C@H](Cc1cnc[nH]1)NC2=O` (some centres unmarked) [Example 10001] ({CH2CO}-Y[NMeA]N[X1]HLPWS[Bta][NMeNle][NMeNle]R[ξC]G-NH2; thioether N-14) returned an IC50 of 100 to 10000 nM.
Still for that read-out and setting: the value for `CCCC[C@H]1C(=O)N(C)[C@@H](CCCC)C(=O)N[C@@H](CCCNC(=N)N)C(=O)NC(C(=O)NCC(N)=O)CSCC(=O)N[C@@H](Cc2ccc(O)cc2)C(=O)N(C)[C@@H](C)C(=O)N[C@@H](CC(N)=O)C(=O)N[C@]2(C[C@@H]2C)C(=O)N[C@@H](Cc2cnc[nH]2)C(=O)N[C@@H](CC(C)C)C(=O)N2CCC[C@H]2C(=O)N[C@@H](Cc2c[nH]c3ccccc23)C(=O)N[C@@H](CO)C(=O)N[C@@H](Cc2csc3ccccc23)C(=O)N1C` (some centres unmarked) [Example 10003] ({CH2CO}-Y[NMeA]N[X4]HLPWS[Bta][NMeNle][NMeNle]R[ξC]G-NH2; thioether N-14) was 100 to 10000 nM.
